Results as given in BindingDB's records for doi:10.1016/j.bmc.2015.03.047 (Shanghai Institute of Technology, 2015).

Biological target: Rho-associated protein kinase 2 (Homo sapiens, UniProt O75116)
Assay: Inhibition of ROCK2 (unknown origin) using STK2 substrate after 4 hrs by HTRF mode

Chain of Rho-associated protein kinase 2 (O75116 whole entry): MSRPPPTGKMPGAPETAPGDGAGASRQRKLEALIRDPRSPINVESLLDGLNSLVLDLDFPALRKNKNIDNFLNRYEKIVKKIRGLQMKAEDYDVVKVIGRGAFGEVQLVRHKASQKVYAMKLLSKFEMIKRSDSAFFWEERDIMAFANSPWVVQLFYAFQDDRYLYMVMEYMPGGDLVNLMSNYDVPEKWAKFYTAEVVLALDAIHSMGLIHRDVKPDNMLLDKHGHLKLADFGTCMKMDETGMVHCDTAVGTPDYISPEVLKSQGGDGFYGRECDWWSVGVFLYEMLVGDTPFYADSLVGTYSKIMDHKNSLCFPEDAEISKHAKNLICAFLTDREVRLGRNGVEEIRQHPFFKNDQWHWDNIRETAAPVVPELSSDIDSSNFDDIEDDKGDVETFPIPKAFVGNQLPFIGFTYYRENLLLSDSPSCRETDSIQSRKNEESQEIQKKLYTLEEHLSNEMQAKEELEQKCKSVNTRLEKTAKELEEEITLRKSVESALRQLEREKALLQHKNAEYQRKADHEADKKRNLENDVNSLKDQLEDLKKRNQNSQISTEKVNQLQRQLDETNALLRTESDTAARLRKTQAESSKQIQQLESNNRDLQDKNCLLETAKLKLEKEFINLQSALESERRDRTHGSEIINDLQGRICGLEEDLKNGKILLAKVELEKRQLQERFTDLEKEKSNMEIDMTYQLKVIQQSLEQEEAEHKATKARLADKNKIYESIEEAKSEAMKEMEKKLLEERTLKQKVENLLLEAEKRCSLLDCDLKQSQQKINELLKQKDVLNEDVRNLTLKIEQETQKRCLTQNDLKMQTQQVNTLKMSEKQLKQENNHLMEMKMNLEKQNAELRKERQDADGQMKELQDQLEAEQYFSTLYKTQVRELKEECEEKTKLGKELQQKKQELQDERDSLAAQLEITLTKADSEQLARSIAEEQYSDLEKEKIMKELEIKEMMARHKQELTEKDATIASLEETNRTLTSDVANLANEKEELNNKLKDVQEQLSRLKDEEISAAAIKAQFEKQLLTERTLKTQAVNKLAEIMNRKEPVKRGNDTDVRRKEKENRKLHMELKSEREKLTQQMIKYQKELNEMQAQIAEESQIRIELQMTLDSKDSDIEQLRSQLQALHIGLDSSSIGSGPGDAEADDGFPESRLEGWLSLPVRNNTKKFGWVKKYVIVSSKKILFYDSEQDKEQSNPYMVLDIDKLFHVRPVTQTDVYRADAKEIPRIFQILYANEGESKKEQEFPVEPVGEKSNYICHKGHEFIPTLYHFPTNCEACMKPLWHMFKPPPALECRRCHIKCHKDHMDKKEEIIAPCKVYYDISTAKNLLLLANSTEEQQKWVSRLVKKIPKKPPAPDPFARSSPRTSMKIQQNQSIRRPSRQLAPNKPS

CNC(=O)N(CCO)c1ccc(-c2cn[nH]c2)cc1
IC50: 751 nM
